Test results reported in publication PMC11876601 (Molecular Systems Biology, 2025).
Like-named read-outs stand apart in the source and are kept apart here.

Assays:
Assay in all cases: cells
Parameters in all cases: Viability of PDAC cell lines, ATPlite luminescence, 11-dose single-agent curve fit
BxPC-3 = tested on: BxPC-3
Procedure: (§1) Afterward, small amounts were transferred to 384-well intermediate plates (Greiner Bio-One GmbH, Germany). […] For drug combination screening, 1000 to 5000 cells were seeded into 384-well plates (CulturPlate™, Perkin Elmer, MA, USA) using a Multidrop™ Combi Reagent Dispenser (Thermo Scientific, MA, USA) in 50 µl medium per well 24 h prior to drug treatment (seeding densities see Appendix Table S1). […] The final DMSO concentration in each well was 0.2%. […] Eight wells per plate without library drug served as negative controls, and sixteen wells per plate containing 5 µM Staurosporine served as positive controls. […] Next, we analyzed the drug sensitivity of immortalized duct cell line HPDE to detect effects unrelated to pancreatic cancer.

Dan-G = conditions: 72 h
Procedure: as §1

Colo-357 = tested on: Colo-357
Procedure: as §1

PaTu-8988-T = conditions: 72 h
Procedure: as §1

HPDE = conditions: 72 h
Procedure: as §1

Capan-1 = tested on: Capan-1
Procedure: as §1

PANC-1 = tested on: PANC-1
Procedure: as §1

HuP-T4 = tested on: HuP-T4
Procedure: as §1

MiaPaCa-2 = tested on: MiaPaCa-2
Procedure: as §1

Suit2-07 = conditions: 72 h
Procedure: as §1

AsPC-1 = tested on: AsPC-1
Procedure: as §1

PSN-1 = tested on: PSN-1
Procedure: as §1

FAMPAC = conditions: 72 h
Procedure: as §1

[1] = Homo sapiens, BXPC-3, 72 h, read-out: EC50 [nM]
[2] = Homo sapiens, COLO357, 72 h, read-out: EC50 [nM]
[3] = Homo sapiens, PaTu 8988t, read-out: EC50 [nM]
[4] = Homo sapiens, CAPAN-1, 72 h, read-out: EC50 [nM]
[5] = Homo sapiens, PANC-1, 72 h, read-out: EC50 [nM]
[6] = Homo sapiens, HuP-T4, 72 h, read-out: EC50 [nM]
[7] = Homo sapiens, MIA PaCa-2, 72 h, read-out: EC50 [nM]
[8] = Homo sapiens, ASPC1, 72 h, read-out: EC50 [nM]
[9] = Homo sapiens, PSN1, 72 h, read-out: EC50 [nM]

EC50 (BxPC-3; [1]) [nM] | EC50 (Colo-357; [2]) [nM] | EC50 (PANC-1; [5]) [nM] | EC50 (MiaPaCa-2; [7]) [nM] | EC50 (AsPC-1; [8]) [nM] | SMILES | EC50 (Dan-G; read-out: EC50 [nM]) [nM] | EC50 (PaTu-8988-T; [3]) [nM] | EC50 (HPDE; HPDE, read-out: EC50 [nM]) [nM] | EC50 (Capan-1; [4]) [nM] | EC50 (HuP-T4; [6]) [nM] | EC50 (Suit2-07; read-out: EC50 [nM]) [nM] | EC50 (PSN-1; [9]) [nM] | EC50 (FAMPAC; read-out: EC50 [nM]) [nM] | other results
805 | 6850 | 5330 | 3390 | 2.85 | O=S(=O)(c1cccc2cnccc12)N1CCCNCC1 [Fasudil] | 2960 | 1140 | > 10000 | > 10000 | 609 | 2790 | 0.04 | > 10000 | –
0.01 | 5.08 | 20.4 | 2740 | 596 | CNC(=O)c1c(C)oc2cc(Oc3ncnc4cc(OC)c(OC)cc34)ccc12 [Fruquintinib] | 1.05 | 1810 | 552 | 32.9 | 653 | 0.05 | 5.57 | 1660 | –
1670 | 515 | 804 | 2520 | 292 | CONC(=O)c1ccccc1Nc1cc(Nc2cc(C)nn2C(C)C)ncc1Cl [GSK2256098] | 3730 | 858 | 156 | 1650 | 4790 | 6450 | 5120 | 3020 | –
52.1 | 75 | 21.2 | 770 | 17.1 | N#CCC1(n2cc(-c3ncnc4[nH]ccc34)cn2)CN(C2CCN(C(=O)c3ccnc(C(F)(F)F)c3F)CC2)C1 [Itacitinib] | 3820 | 292 | 873 | 142 | 316 | 72.1 | 124 | 1420 | –
– | – | – | – | – | O=C(Nc1cnn2ccc(N3CCC[C@@H]3c3cc(F)ccc3F)nc12)N1CC[C@H](O)C1 [Larotrectinib] | – | – | – | – | – | – | – | – | EC50 (BxPC-3; 72 h, read-out: EC50): 357 nM; EC50 (Dan-G; read-out: EC50): 451 nM; EC50 (Colo-357; 72 h, read-out: EC50): 34.9 nM; EC50 (PaTu-8988-T; read-out: EC50): 678 nM; EC50 (HPDE; read-out: EC50): 459 nM; EC50 (Capan-1; 72 h, read-out: EC50): 3880 nM; EC50 (PANC-1; 72 h, read-out: EC50): 211 nM; EC50 (HuP-T4; 72 h, read-out: EC50): 148 nM; EC50 (MiaPaCa-2; 72 h, read-out: EC50): 53.6 nM; EC50 (Suit2-07; read-out: EC50): 196 nM; EC50 (AsPC-1; 72 h, read-out: EC50): 53.5 nM; EC50 (PSN-1; 72 h, read-out: EC50): 270 nM; EC50 (FAMPAC; read-out: EC50): 842 nM
2210 | 3830 | > 10000 | > 10000 | 2110 | CCC(=O)N1CC[C@H](Nc2ncnc3c2CN(c2cnc(OC)c(C(F)(F)F)c2)CC3)C1 [Leniolisib] | 6460 | 9180 | 6030 | 4340 | 733 | 4720 | 8970 | 2610 | –
> 10000 | 4390 | 655 | 4890 | 394 | COc1cc2nccc(Oc3ccc(NC(=O)NC4CC4)c(Cl)c3)c2cc1C(N)=O [Lenvatinib] | 39.1 | > 10000 | > 10000 | 7850 | 0.14 | 0.2 | 7480 | 164 | –
1270 | 6220 | 8920 | 2650 | 4980 | C[C@H]1Oc2cc(cnc2N)-c2c(nn(C)c2C#N)CN(C)C(=O)c2ccc(F)cc21 [Lorlatinib] | 3210 | 5400 | 999 | 1070 | 1320 | 3240 | 554 | 207 | –
536 | 26.1 | 95.7 | 449 | 361 | Cc1c(F)cc(C(=O)NC2CC2)cc1-c1ccc(C(=O)NCC(C)(C)C)cn1 [Losmapimod] | 363 | 1180 | 25.6 | 150 | 218 | 10.7 | 130 | 0.11 | –
> 10000 | 3910 | > 10000 | 7350 | 9400 | CC1(C)CNc2cc(NC(=O)c3cccnc3NCc3ccncc3)ccc21 [Motesanib] | > 10000 | 455 | 8730 | 9170 | 515 | 942 | 2550 | > 10000 | –
3610 | > 10000 | 3790 | 3700 | > 10000 | Cc1cn(-c2cc(NC(=O)c3ccc(C)c(Nc4nccc(-c5cccnc5)n4)c3)cc(C(F)(F)F)c2)cn1 [Nilotinib] | > 10000 | 5190 | > 10000 | > 10000 | 22.2 | 186 | > 10000 | > 10000 | –
1040 | 2.98 | 568 | 47 | 145 | Cc1[nH]c(/C=C2\C(=O)Nc3ccccc32)c(C)c1CCC(=O)O [Orantinib] | 487 | 135 | 61.9 | 17.6 | 2430 | 2.77 | 366 | 0.01 | –
> 10000 | > 10000 | 913 | 3820 | > 10000 | Cc1ccc(Nc2nccc(N(C)c3ccc4c(C)n(C)nc4c3)n2)cc1S(N)(=O)=O [Pazopanib] | 4120 | 35.4 | 2410 | > 10000 | 135 | > 10000 | 8400 | 5020 | –
8880 | 10100 | 2210 | 2640 | 9890 | FC(F)(F)c1ccc(CNc2ccc(Cc3c[nH]c4ncc(Cl)cc34)cn2)cn1 [Pexidartinib] | 6180 | 46.5 | 10200 | > 10000 | 4690 | 1100 | 6940 | 4000 | –
1780 | 196 | 260 | 3580 | 1050 | Cc1cn(-c2cc(NC(=O)c3ccc(C)c(Nc4nccc(-c5cnccn5)n4)c3)cc(C(F)(F)F)c2)cn1 [Radotinib] | 5910 | 1390 | 6.45 | 4010 | > 10000 | 99.5 | 11 | 4270 | –
5220 | > 10000 | 1060 | 207 | 0.56 | COCCNc1cc(NC(=O)N2CCCc3cc(CN4CCN(C)CC4=O)c(C=O)nc32)ncc1C#N [Roblitinib] | 150 | > 10000 | 0.09 | 25.8 | 60.7 | 7.75 | 4040 | 7290 | –
6970 | 8280 | 1370 | 1740 | 23.6 | N#CC[C@H](C1CCCC1)n1cc(-c2ncnc3[nH]ccc23)cn1 [Ruxolitinib] | 117 | 13.4 | > 10000 | 0.51 | 212 | 1750 | 2210 | 9910 | –
> 10000 | > 10000 | 8800 | 4950 | 755 | Cc1cc(F)c(C(=O)Nc2cccc(-c3nncn3C(C)C)n2)cc1-n1cnc(C2CC2)c1 [Selonsertib] | 10300 | 5440 | > 10000 | 8570 | 3.85 | 4310 | 6150 | > 10000 | –
